Read-outs that look alike come from different tables or passages of the source.
Columns and labels:
[1] = target: GDP-bound KRAS wild-type protein (Homo sapiens, UniProt P01116); test: Binding to KRAS by surface plasmon resonance (SPR), Single Cycle Kinetics; conditions: GDP-bound KRAS wild-type protein, read-out: KRAS KD
[2] = target: GDP-bound NRAS wild-type protein (Homo sapiens, UniProt P01111); test: Binding to NRAS by surface plasmon resonance (SPR), Single Cycle Kinetics; conditions: for NRAS/KRAS (ratio of KD value for NRAS to KD value for KRAS): SPR, GDP-bound NRAS wild-type protein vs GDP-bound KRAS wild-type protein; for NRAS/KRAS (ratio of KD value with respect to GDP-bound NRAS wild-type protein to KD value with respect to KRAS): SPR KD ratio NRAS/KRAS, class symbols
Sequence of GDP-bound NRAS wild-type protein (P01111 whole entry): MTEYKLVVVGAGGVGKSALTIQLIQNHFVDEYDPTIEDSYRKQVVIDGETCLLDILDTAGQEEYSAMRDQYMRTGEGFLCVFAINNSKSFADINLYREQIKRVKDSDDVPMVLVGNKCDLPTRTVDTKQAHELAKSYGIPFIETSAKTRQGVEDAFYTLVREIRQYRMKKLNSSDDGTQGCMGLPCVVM

[3] = target: GDP-bound HRAS wild-type protein (Homo sapiens, UniProt P01112); test: Binding to HRAS by surface plasmon resonance (SPR), Single Cycle Kinetics; conditions: for HRAS/KRAS (ratio of KD value for HRAS to KD value for KRAS): SPR, GDP-bound HRAS wild-type protein vs GDP-bound KRAS wild-type protein; for HRAS/KRAS (ratio of KD value with respect to GDP-bound HRAS wild-type protein to KD value with respect to KRAS): SPR KD ratio HRAS/KRAS, class symbols
Sequence of GDP-bound HRAS wild-type protein (P01112 whole entry): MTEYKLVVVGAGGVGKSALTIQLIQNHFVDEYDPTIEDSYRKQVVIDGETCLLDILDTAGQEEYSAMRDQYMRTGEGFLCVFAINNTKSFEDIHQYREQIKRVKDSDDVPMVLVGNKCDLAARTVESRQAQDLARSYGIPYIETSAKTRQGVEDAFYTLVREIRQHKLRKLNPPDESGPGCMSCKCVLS

[4] = test system: human lung cancer strain NCI-H441;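 further: cell proliferation inhibition after four days measured by CellTiter-Glo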
[5] = SPR, Single Cycle Kinetics, 1:1 binding model
[6] = SPR Single Cycle Kinetics, 1:1 binding model

Sequence of GDP-bound KRAS wild-type protein (P01116 whole entry): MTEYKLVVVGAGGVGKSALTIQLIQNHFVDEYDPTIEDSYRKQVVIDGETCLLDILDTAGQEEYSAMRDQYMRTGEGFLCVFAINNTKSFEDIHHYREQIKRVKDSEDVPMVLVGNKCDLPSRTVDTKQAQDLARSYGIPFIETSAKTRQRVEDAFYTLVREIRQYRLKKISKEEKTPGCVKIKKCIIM

Row | Kd [1, 5] | IC50 [4] | Kd ([1]; SPR, Single Cycle Kinetics) | Kd [1, 6] | SMILES | NRAS/KRAS (ratio of KD value for NRAS to KD value for KRAS) ([2]; KD ratio class) | HRAS/KRAS (ratio of KD value for HRAS to KD value for KRAS) ([3]; KD ratio class) | NRAS/KRAS (ratio of KD value for NRAS to KD value for KRAS) [2] | HRAS/KRAS (ratio of KD value for HRAS to KD value for KRAS) [3] | NRAS/KRAS (ratio of KD value with respect to GDP-bound NRAS wild-type protein to KD value with respect to KRAS) [2] | HRAS/KRAS (ratio of KD value with respect to GDP-bound HRAS wild-type protein to KD value with respect to KRAS) [3]
1 |  | 42.3 nM | 0.58 nM |  | CCCOC[C@H]1C(=O)N[C@@H]([C@@H](C)CC)C(=O)N(C)CC(=O)N(C)[C@H]2C/C=C\CCN(C2=O)[C@@H](CC2CCC(F)(F)CC2)C(=O)N(C)CC(=O)N[C@@H](CCc2cc(F)c(C(F)(F)F)c(F)c2)C(=O)N2C[C@H](OCC)C[C@H]2C(=O)NC2(CC(C)(C)C2)C(=O)N(C)[C@@H](C(CC)CC)C(=O)N(C)[C@H](C(=O)N(C)C)CC(=O)N1C [PP2472] |  |  | A (a compound having 10 or more and less than 20 is denoted as A) | A (a compound having 10 or more and less than 20 is denoted as A) |  | 
2 |  | 303 nM | 2.6 nM |  | CC[C@H](C)[C@@H]1NC(=O)[C@H](COC)N(C)C(=O)C[C@@H](C(=O)N(C)C)N(C)C(=O)[C@H](C2CCCC2)N(C)C(=O)C2(CC(C)(C)C2)NC(=O)[C@@H]2C[C@@H](OC(C)C)CN2C(=O)[C@H](CCc2ccc(Cl)c(Cl)c2)NC(=O)CN(C)C(=O)[C@H](CC2CCCCC2)N2CC/C=C\C[C@@H](C2=O)N(C)C(=O)CN(C2CC2)C1=O [PP2513] |  |  | A (a compound having 10 or more and less than 20 is denoted as A) | A (a compound having 10 or more and less than 20 is denoted as A) |  | 
3 |  | 10.6 nM | 0.13 nM |  | CC[C@H](C)[C@@H]1NC(=O)[C@H](COC)N(C)C(=O)C[C@@H](C(=O)N(C)CC)N(C)C(=O)[C@H](C2CCCC2)N(C)C(=O)C2(CC(C)(C)C2)NC(=O)[C@@H]2C[C@H](C)CN2C(=O)[C@H](CCc2ccc(C(F)(F)F)c(Cl)c2)NC(=O)CN(C)C(=O)[C@H](Cc2ccc(C)cc2)N2CC/C=C\C[C@@H](C2=O)N(C)C(=O)CN(C)C1=O [PP2506] |  |  | A (a compound having 10 or more and less than 20 is denoted as A) | A (a compound having 10 or more and less than 20 is denoted as A) |  | 
4 |  | 82.7 nM |  | 1.2 nM | CCC(CC)[C@H]1C(=O)N(C)[C@H](C(=O)N(C)C)CC(=O)N(C)[C@@H](COC)C(=O)N[C@@H]([C@@H](C)CC)C(=O)N(C2CC2)CC(=O)N(C)[C@H]2C/C=C\CCN(C2=O)[C@@H](Cc2ccc(C)cc2)C(=O)N(C)CC(=O)N[C@@H](CCc2cc(F)c(C(F)(F)F)c(F)c2)C(=O)N2C[C@H](OC(C)C)C[C@H]2C(=O)NC2(CC(C)(C)C2)C(=O)N1C [PP2572] |  |  |  |  | A (a compound having 10 or more and less than 20 is denoted as A) | A (a compound having 10 or more and less than 20 is denoted as A)
5 |  | 64 nM |  | 0.77 nM | CCC[C@H]1C(=O)N[C@@H]([C@@H](C)CC)C(=O)N(C2CC2)CC(=O)N(C)[C@H]2C/C=C\CCN(C2=O)[C@@H](Cc2ccc(C(F)F)cc2)C(=O)N(C)CC(=O)N[C@@H](CCc2cc(F)c(C(F)(F)F)c(F)c2)C(=O)N2C[C@H](OC(C)C)C[C@H]2C(=O)NC2(CC(C)(C)C2)C(=O)N(C)[C@@H](C(CC)CC)C(=O)N(C)[C@H](C(=O)N(C)C)CC(=O)N1C [PP2529] |  |  |  |  | AA (a compound having 20 or more is denoted as AA) | A (a compound having 10 or more and less than 20 is denoted as A)

Second part, the compound before the results:

Row | SMILES | Kd [1, 5] | IC50 [4] | Kd ([1]; SPR, Single Cycle Kinetics) | Kd [1, 6] | NRAS/KRAS (ratio of KD value for NRAS to KD value for KRAS) ([2]; KD ratio class) | HRAS/KRAS (ratio of KD value for HRAS to KD value for KRAS) ([3]; KD ratio class) | NRAS/KRAS (ratio of KD value for NRAS to KD value for KRAS) [2] | HRAS/KRAS (ratio of KD value for HRAS to KD value for KRAS) [3] | NRAS/KRAS (ratio of KD value with respect to GDP-bound NRAS wild-type protein to KD value with respect to KRAS) [2] | HRAS/KRAS (ratio of KD value with respect to GDP-bound HRAS wild-type protein to KD value with respect to KRAS) [3]
6 | CCO[C@@H]1C[C@H]2C(=O)NC3(CCCC3)C(=O)N(C)[C@@H](C3CCCC3)C(=O)N(C)[C@H](C(=O)N3CCOCC3)CC(=O)N(C)[C@@H](CC)C(=O)N[C@@H]([C@@H](C)CC)C(=O)N(C)CC(=O)N(C)[C@H]3C[C@@H](C)[C@@H](C)CN(C3=O)[C@@H](Cc3ccc(C(F)(F)F)cc3)C(=O)N(C)CC(=O)N[C@@H](CCc3ccc(C(F)(F)F)c(Cl)c3)C(=O)N2C1 [PP1359] | 0.068 nM | 3.2 nM |  |  | A (a compound having 10 or more and less than 20 is denoted as A) | B (a compound having 3 or more and less than 10 is denoted as B) |  |  |  | 
7 | CCOC[C@H]1C(=O)N[C@@H]([C@@H](C)CC)C(=O)N(C)CC(=O)N(C)[C@H]2C/C=C\CCN(C2=O)[C@@H](CC2CCCCC2)C(=O)N(C)CC(=O)N[C@@H](CCc2ccc(C(F)(F)F)c(OC)c2)C(=O)N2C[C@H](OCC)C[C@H]2C(=O)NC2(CC(C)(C)C2)C(=O)N(C)[C@@H](C(CC)CC)C(=O)N(C)[C@H](C(=O)N(C)C)CC(=O)N1C [PP2470] |  | 118 nM | 1.8 nM |  |  |  | A (a compound having 10 or more and less than 20 is denoted as A) | A (a compound having 10 or more and less than 20 is denoted as A) |  | 
8 | CC[C@H](C)[C@@H]1NC(=O)[C@H](CC)N(C)C(=O)C[C@@H](C(=O)N(C)C)N(C)C(=O)[C@H](C2CCCC2)N(C)C(=O)C2(CCC2)NC(=O)[C@H](C)NC(=O)[C@H](CCc2cc(F)c(C(F)(F)F)c(F)c2)NC(=O)CN(C)C(=O)[C@H](Cc2ccc(C(F)(F)F)cc2)N2CC/C=C\C[C@@H](C2=O)N(C)C(=O)CN(C)C1=O [PP1140, (2S,8S,11S,17S,20S,24S,27S,33S,35Z)-17-cyclopentyl-8-[2-[3,5-difluoro-4-(trifluoromethyl)phenyl]ethyl]-24-ethyl-N,N,4,11,16,19,23,29,32-nonamethyl-27-[(1S)-1-methylpropyl]-3,6,9,12,15,18,22,25,28,31,39-undecaoxo-2-[[4-(trifluoromethyl)phenyl]methyl]spiro[1,4,7,10,13,16,19,23,26,29,32-undecazabicyclo[31.5.1]nonatriacont-35-ene-14,1′-cyclobutane]-20-carboxamide] |  | 1780 nM | 0.15 nM |  |  |  | A (a compound having 10 or more and less than 20 is denoted as A) | A (a compound having 10 or more and less than 20 is denoted as A) |  | 
9 | CCO[C@@H]1C[C@H]2C(=O)NC3(CCC3)C(=O)N(C)[C@@H](C3CCCC3)C(=O)N(C)[C@H](C(=O)N(C)C)CC(=O)N(C)[C@@H](CC3CC3)C(=O)N[C@@H]([C@@H](C)CC)C(=O)N(C)CC(=O)N(C)[C@H]3C/C=C\CCN(C3=O)[C@@H](Cc3ccc(F)cc3)C(=O)N(C)CC(=O)N[C@@H](CCc3cc(F)c(Cl)c(F)c3)C(=O)N2C1 [PP1479] | 0.49 nM | 140 nM |  |  | A (a compound having 10 or more and less than 20 is denoted as A) | B (a compound having 3 or more and less than 10 is denoted as B) |  |  |  | 
10 | CCO[C@@H]1C[C@H]2C(=O)NC3(CCC3)C(=O)N(C)[C@@H](C3CCCC3)C(=O)N(C)[C@H](C(=O)N3CCOCC3)CC(=O)N(C)[C@@H](Cc3ccc(Cl)c(Cl)c3)C(=O)N[C@@H]([C@@H](C)CC)C(=O)N(C)CC(=O)N(C)[C@H]3CCCCCN(C3=O)[C@@H](Cc3ccc(F)cc3)C(=O)N(C)CC(=O)N[C@@H](CCc3cc(F)c(C(F)(F)F)c(F)c3)C(=O)N2C1 [PP1188] |  | 33.5 nM | 0.43 nM |  |  |  | B (a compound having 3 or more and less than 10 is denoted as B) | B (a compound having 3 or more and less than 10 is denoted as B) |  | 
11 | CC[C@H](C)[C@@H]1NC(=O)[C@H](CC(C)C)N(C)C(=O)C[C@@H](C(=O)N(C)CC)N(C)C(=O)[C@H](C2CCCC2)N(C)C(=O)C2(CC(C)(C)C2)NC(=O)[C@@H]2C[C@H](C)CN2C(=O)[C@H](CCc2cc(F)c(C(F)(F)F)c(F)c2)NC(=O)CN(C)C(=O)[C@H](Cc2ccc(C)cc2)N2CC/C=C\C[C@@H](C2=O)N(C)C(=O)[C@@H]2CCCN2C1=O [PP2411] |  | 91.4 nM | 1 nM |  |  |  | A (a compound having 10 or more and less than 20 is denoted as A) | A (a compound having 10 or more and less than 20 is denoted as A) |  | 
12 | CCO[C@@H]1C[C@H]2C(=O)NC3(CCC3)C(=O)N(C)[C@@H](C3CCCC3)C(=O)N(C)[C@H](C(=O)N(C)C)CC(=O)N(C)[C@@H](Cc3ccccc3)C(=O)N[C@@H]([C@@H](C)CC)C(=O)N(C)CC(=O)N(C)[C@H]3CCCCCN(C3=O)[C@@H](Cc3ccc(F)cc3)C(=O)N(C)CC(=O)N[C@@H](CCc3cc(F)c(C(F)(F)F)c(F)c3)C(=O)N2C1 [PP1195] |  | 18.3 nM | 0.074 nM |  |  |  | B (a compound having 3 or more and less than 10 is denoted as B) | B (a compound having 3 or more and less than 10 is denoted as B) |  | 
